From patent US5798442A, “Peptidyl derivatives as inhibitors of pro-apoptotic cysteine proteinases” (Merck Frosst Canada, Inc., priority 1995, dated 1998)
pIC50, pKi: −log10 of the molar value. “Also recorded” adds a separate entry of the source.

Columns and labels:
[1] = biological target: T1, PARP cleavage activity in apoptotic osteosarcoma cell extracts (Homo sapiens, UniProt P42574); experiment: [35S]PARP cleavage by cytosolic extracts of apoptotic osteosarcoma cells; assay type: biochemical; details: for effect on proteolytic cleavage of PARP: FIG. 2a, 5 mM N-ethylmaleimide, 5 mM iodoacetamide, 10 μM E-64; for pIC50: apoptotic osteosarcoma cell extracts, [35S]PARP, read-out: IC50 for inhibition of PARP cleavage activity
T1 construct: 10 μg protein from the cytosol fraction of apoptotic osteosarcoma cells (from 7 day, post-confluent cultures); endogenous in cells; host or cells: human osteosarcoma cells 143.98.2 (ATCC CRL 11226), 7 day post-confluent (apoptotic), cytosol fraction
T1 sequence (P42574 29-175 limits assumed): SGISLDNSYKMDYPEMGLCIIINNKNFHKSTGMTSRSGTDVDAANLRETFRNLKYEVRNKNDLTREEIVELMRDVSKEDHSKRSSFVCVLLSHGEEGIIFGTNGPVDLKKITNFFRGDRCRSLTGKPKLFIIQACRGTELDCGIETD
T1 sequence (P42574 176-277 limits assumed): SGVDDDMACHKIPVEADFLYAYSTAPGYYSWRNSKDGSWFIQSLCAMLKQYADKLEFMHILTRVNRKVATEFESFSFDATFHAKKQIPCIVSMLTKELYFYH

[2] = biological target: T2, apopain/CPP32 (Homo sapiens, UniProt P42574); experiment: continuous fluorometric assay with Ac-DEVD-AMC and purified apopain; assay type: biochemical
T2 construct: cleavage between Asp^28 -Ser^29 and Asp^175 -Ser^176; cleavage sites which yield the p17 and p12 subunits from the CPP32 proenzyme; endogenous in cells; host or cells: THP-1 cells (ATCC TIB 202)
T2 sequence (P42574 29-175 limits assumed): T1 sequence (P42574 29-175 limits assumed)
T2 sequence (P42574 176-277 limits assumed): T1 sequence (P42574 176-277 limits assumed)

[3] = test system: intact cells; experiment: activity in intact cells; assay type: cell-based

Structure (SMILES)	effect on proteolytic cleavage of PARP [1]	pIC50 [1]	also measured
NC(=O)CI [iodoacetamide]	abolished	–	–
CC(=O)N[C@@H](CC(=O)O)C(=O)N[C@@H](CCC(=O)O)C(=O)N[C@H](C(=O)N[C@@H](CC(=O)O)C(=O)O)C(C)C [Ac-DEVD-COOH, N-Acetyl-aspartyl-glutamyl-valinyl-aspartic acid]	–	< 5.00	–
CCN1C(=O)C=CC1=O [N-ethylmaleimide]	abolished	–	–
CC(C)C[C@H](NC(=O)[C@H]1O[C@@H]1C(=O)O)C(=O)NCCCCN=C(N)N [Example E-64]	not	–	–
CC(=O)N[C@@H](Cc1ccc(O)cc1)C(=O)N[C@H](C(=O)N[C@@H](C)C(=O)N[C@H](C=O)CC(=O)O)C(C)C [Ac-YVAD-CHO]	–	< 5.00	pKi [2]: 4.92
CC(=O)N[C@@H](CC(=O)O)C(=O)N[C@@H](CCC(=O)O)C(=O)N[C@H](C(=O)NC(C=O)CC(=O)O)C(C)C (stereo partly drawn) [Ac-DEVD-CHO, N-(N-Acetyl-L-aspartyl-L-glutamyl-L-valinyl)-3-amino-3-formylpropionic acid]	–	–	activity in intact cells [3]: inactive; membrane permeability [3]: membrane impermeable; enzyme activity at infinite time ([2]; 50 nM inhibitor, 1×Km Ac-DEVD-AMC): complete inhibition; also recorded: nearly complete suppression
